Test results taken from patent publication US10328161B2, “Luciferin derivatives from bicyclic reactants and aminothiol derivatives and methods of use thereof” (The Regents of the University of California, priority 2012, dated 2019).
Blank lines part the entries; values can stand above or below the compound they belong to.

Columns and labels:
[1] = Selectivity assay for PCL-2: panel of various ROS; format: biochemical
Procedure: (§1) Millipore water was used to prepare all aqueous solutions. Luciferase (100 μg/mL) in 50 mM Tris buffer, pH 7.4, with 10 mM MgCl2, 0.1 mM ZnCl2, and 2 mM ATP was added to selectivity assay samples (described below) to determine the relative amount of luciferin formed during incubation. Measurements for bioluminescent assays were performed at 37° C. and were recorded using a Molecular Devices SpectraMax M2 plate reader (Sunnyvale, Calif.). Samples for bioluminescent measurements were placed in white, opaque 96-well plates, which were purchased from Corning Inc. (Corning, N.Y.). ATP was purchased from MP Biomedicals (Solon, Ohio) or Sigma-Aldrich (St. Louis, Mo.), and luciferase was purchased from Promega (Madison, Wis.). Caspase enzymes were purchased from Sigma-Aldrich (St. Louis, Mo.), and caspase inhibitors were purchased from MP Biomedicals (Solon, Ohio).
(§2) Various ROS (100 μM) were administered to PCL-2 or HCBT (5 μM) in Tris buffer (50 mM, pH 7.4) with or without 10 mM MgCl2 and 0.1 mM ZnCl2. […] After an additional 15 min incubation, 100 μL of a Tris buffer (50 mM, pH 7.4) containing luciferase (100 μg/mL), 10 mM MgCl2, 0.1 mM ZnCl2, and 2 mM ATP was added to 100 μL of the PCL-2 or HCBT solutions and the bioluminescent signal was detected.

FVB-luc^+ mice [2] = assay: Signal produced from endogenous L-cysteine in mice; format: in vivo; conditions: HCBT 0.05 μmol IP without D-cysteine
Text: (§3) A Xenogen IVIS Spectrum instrument (Caliper Life Sciences, Hopkinton, Mass.) was used for bioluminescent imaging in all animal experiments. Mice were anesthetized prior to injection and during imaging via inhalation of isoflurane. Phosphate Buffered Saline (PBS) was purchased from Thermo Fisher Scientific (Waltham, Mass.), and saline (0.9%) was made from sodium chloride and Millipore water. Isoflurane was purchased from Phoenix Pharmaceuticals, Inc. (St. Joseph, Mo.), and pharmaceutical grade DMSO was purchased from Sigma-Aldrich (St. Louis, Mo.). Medical grade oxygen was purchased from Praxair (Danbury, Conn.).
(§4) FVB-luc^+ (FVB-Tg(CAG-luc,-GFP)L2G85Chco/J) mice were bred at UC Berkeley, and were single or group-housed on a 12:12 light-dark cycle at 22° C. with free access to food and water. All studies were approved and performed according to the guidelines of the Animal Care and Use Committee of the University of California, Berkeley.
Unshaven, male FVB-luc+ mice were anesthetized with isoflurane and injected IP with D-cysteine (0.05 μmol, in 20 μL of PBS) or vehicle (20 μL PBS). After 2 min, mice were injected IP with HCBT (0.05 μmol in 50 μL of 1:1 DMSO:PBS). Following injections, mice were imaged with an IVIS Spectrum.

PC3M-luc cells [3] = assay: Comparison of in situ luciferin formation and luciferin in PC3M-luc cells (intact and lysed); format: cell-based
Procedure: (§5) A Xenogen IVIS Spectrum instrument (Caliper Life Sciences, Hopkinton, Mass.) was used for bioluminescent imaging in all cellular experiments. PC3M-luc cells (kindly provided by Chris Contag, Stanford University) were cultured in Dulbecco's Modified Eagle Medium (DMEM) containing 10% Fetal Bovine Serum (FBS). Prior to assaying, cells were passed and plated (1.3-1.5×10^4 cells/well) in black 96-well plates with clear bottoms (Becton Dickinson and Company, Franklin Lakes, N.J.). Once the cells were ca. 95% confluent, reagents were added for bioluminescent assays.
PC3M-luc cells prepared as described above were washed with HBSS (25 mM glucose) prior to addition of HCBT and D-cysteine (0-500 μM, 1% DMSO) or luciferin (0-500 μM, 1% DMSO) in HBSS (25 mM glucose). For experiments with lysed cells, 100 μL Glo lysis buffer (Promega, Madison, Wis.) was incubated with the PC3M-luc cells for 5 min prior to addition of HCBT and D-cysteine or luciferin. The plates were immediately imaged for 2 h to determine the peak bioluminescent signal produced.

PC3M-luc cells [4] = assay: Signal produced from endogenous L-cysteine in PC3M-luc cells; format: cell-based; conditions: HCBT alone 0-50 μM
Procedure: as §5
PC3M-luc cells prepared as described above were washed with HBSS (25 mM glucose) prior to addition of HCBT and D-cysteine (0-50 μM, 1% DMSO) or HCBT alone (0-50 μM, 1% DMSO) in HBSS (25 mM glucose). The plate was immediately imaged for 2 h to determine the peak bioluminescent signal produced.

PC3M-luc cells [5] = assay: Lifetime of HCBT and D-cysteine in PC3M-luc cells; format: cell-based; conditions: 100 μM, 30 min incubation, wash, complementary reagent after 0-60 min
Procedure: as §5
The medium was removed from PC3M-luc cells prepared as described above, and HCBT (100 μM, 1% DMSO) or D-cysteine (100 μM, 1% PBS) in DMEM (-FBS) was added. After a 30 min incubation, the HCBT or D-cysteine was removed, the cells were washed with DMEM (-FBS), and fresh DMEM was added. After 0, 15, 30, 45, or 60 min, the second component of luciferin, D-cysteine (100 μM final concentration, 1% PBS) or HCBT (100 μM final concentration, 1% DMSO) in HBSS (25 mM glucose) was added, and the plate was immediately imaged for 2 h to determine the peak bioluminescent signal produced.

[6] = Lipopolysaccharide inflammation model, H2O2 detection with PCL-2; format: in vivo, mice; conditions: LPS 3 mg/kg IP 6 h before PCL-2 and D-cysteine 0.05 μmol each
Text: as §3, §4
Unshaven, female FVB-luc^+ mice, aged 2-5 months, were anesthetized with isoflurane and injected IP with lipopolysaccharides (LPS, 3 mg/kg in 50 μL of saline) or saline (50 μL). For studies with PCL-2 alone, mice were injected IP with either apocynin (10 mg/kg in 20 μL of DMSO) or DMSO (20 μL) 6 h after LPS injection. […]

[7] = Exogenous H2O2 experiments in mice; format: in vivo
Text: as §3, §4
Unshaven, male FVB-luc^+ mice were anesthetized with isoflurane and injected IP with a mixture of PCL-2 and D-cysteine (0.05 μmol each, in 50 μL of 1:1 DMSO:PBS), followed immediately by an IP injection of H2O2 (0-4.5 μmol in 100 μL of PBS). Control mice were injected IP with a mixture of HCBT and D-cysteine (0.01 μmol each, in 50 μL of 1:1 DMSO:PBS) immediately prior to H2O2 (4.5 μmol in 100 μL of PBS). Following injections, mice were imaged with an IVIS Spectrum.

[8] = Concentration dependence of PCL-2 in aqueous solution; format: biochemical
Procedure: as §1
PCL-2 was incubated in Tris buffer (50 mM, pH 7.4) with various concentrations of H2O2 for 60 min prior to the addition of catalase (0.4 mg/mL), dithiothreitol (1 mM) and D-cysteine (20 μM). After an additional 15 min incubation, 100 μL of a Tris buffer (50 mM, pH 7.4) containing luciferase (100 μg/mL), 10 mM MgCl2, 0.1 mM ZnCl2, and 2 mM ATP was added to 100 μL of the PCL-2 solutions and the bioluminescent signal was detected.

[9] = Kinetic analysis of the PCL-2 and H2O2 reaction; format: physicochemical; conditions: PCL-2 10 μM, H2O2 1, 2.5 or 5 mM, Tris buffer pH 8.5
Procedure: H2O2 (1, 2.5, or 5 mM) was added to PCL-2 (10 μM) in Tris buffer (pH 8.5) and absorbance measurements were recorded every 15-30 seconds over 5-20 minutes to determine the second order rate constant for the reaction. Measurements were taken at pH 8.5 to distinguish the HCBT peak, which shifts from 321 nm to 379 nm when it is deprotonated, from the PCL-2 peak (321 nm).

[10] = Selectivity assay for PCL-2: response to H2O2; format: biochemical; conditions: PCL-2 5 μM, H2O2 100 μM, 5-60 min, then D-cysteine and luciferase
Procedure: as §1, §2

PC3M-luc cells [11] = assay: Concentration dependence of PCL-2 with PC3M-luc cells; format: cell-based; conditions: PCL-2 25 μM, D-cysteine 25 μM
Procedure: as §5
The medium was removed from PC3M-luc cells prepared as described above, and PCL-2 (25 μM, 2.5% final DMSO concentration), D-cysteine (25 μM), and H2O2 (0-100 μM final concentrations) in DMEM (-FBS) were added. The plate was immediately imaged for 2 h to determine the peak bioluminescent signal produced from PCL-2.

FVB-luc^+ mice [12] = assay: Comparison of in situ luciferin formation and luciferin in mice; format: in vivo; conditions: 0.05 μmol luciferin IP
Text: A Xenogen IVIS Spectrum instrument (Caliper Life Sciences, Hopkinton, Mass.) was used for bioluminescent imaging in all animal experiments. Mice were anesthetized prior to injection and during imaging via inhalation of isoflurane. Phosphate Buffered Saline (PBS) was purchased from Thermo Fisher Scientific (Waltham, Mass.), and saline (0.9%) was made from sodium chloride and Millipore water. Isoflurane was purchased from Phoenix Pharmaceuticals, Inc. (St. Joseph, Mo.), and pharmaceutical grade DMSO was purchased from Sigma-Aldrich (St. Louis, Mo.). Medical grade oxygen was purchased from Praxair (Danbury, Conn.). FVB-luc^+ (FVB-Tg(CAG-luc,-GFP)L2G85Chco/J) mice were bred at UC Berkeley, and were single or group-housed on a 12:12 light-dark cycle at 22° C. with free access to food and water. All studies were approved and performed according to the guidelines of the Animal Care and Use Committee of the University of California, Berkeley. Unshaven, male FVB-luc^+ mice were anesthetized with isoflurane and injected IP with D-[…].05 or 0.5 μmol, in 20 μL of PBS) or vehicle (20 μL PBS). After 2 min, mice were injected IP with HCBT (0.05 or 0.5 μmol in 50 μL of 1:1 DMSO:PBS) or luciferin (0.05 μmol in 50 μL of 1:1 DMSO:PBS). Following injections, mice were imaged with an IVIS Spectrum.

permeability across the cell membrane compared to luciferin (PC3M-luc cells [3]; inferred from intact versus lysed PC3M-luc cells): increased permeability
Compound: N#Cc1nc2ccc(O)cc2s1 [HCBT, 2-Cyano-6-hydroxybenzothiazole]
bioluminescence turn-on with the same panel of ROS ([1]; HCBT 5 μM, ROS 100 μM incl. H2O2, 60 min): no bioluminescence turn-on | bioluminescent signal from HCBT and endogenous L-cysteine compared to D-cysteine present (FVB-luc^+ mice [2]): negligible | bioluminescence from HCBT and endogenous L-cysteine compared to HCBT with D-cysteine (PC3M-luc cells [4]): negligible production of bioluminescence | cellular lifetime: signal as time between removal and addition of the complementary reagent increases (PC3M-luc cells [5]): decrease in luminescence

Compound: N#Cc1nc2ccc(OCc3ccc(B(O)O)cc3)cc2s1 [PCL-2, 4-((2-Cyanobenzo[d]thiazol-6-yloxy)methyl)phenylboronic acid]
response to other ROS ([1]; 5 μM probe, ROS 100 μM (TBHP, hypochlorite, NO, OH, OtBu, O2-)): negligible response | turn-on in response to LPS stimulation [6]: ca. 3.7 fold | Turn-on ([7]; H2O2 0.5 μmol, PCL-2 0.05 μmol): 2.8-fold | detection limit for H2O2 in vivo ([7]; IP, FVB-luc^+ mice, optimized imaging conditions for each probe): ca. 0.5 μmol | range of linear response to H2O2 ([8]; PCL-2 5 μM, 60 min, aqueous solution): 1-100 μM H2O2 | detection limit for H2O2 ([8]; in vitro summary statement): low micromolar | second-order rate constant k for the PCL-2 and H2O2 reaction [9]: 2.7 M⁻¹ s⁻¹ | increase in bioluminescence in the presence of H2O2 [10]: ca. 50 fold | range of linear response to H2O2 in cellulo (PC3M-luc cells [11]): 0-100 μM H2O2

Compound: O=C(O)[C@H]1CSC(c2nc3ccc(O)cc3s2)=N1 [luciferin]
bioluminescent signal, luciferin versus HCBT/D-cysteine (PC3M-luc cells [3]; intact PC3M-luc cells, lower concentrations (0-500 μM range)): greater signal than HCBT/D-cysteine | brightness of signal relative to 0.05 μmol HCBT/D-cysteine (FVB-luc^+ mice [12]): ca. 40 fold
